From ChEMBL document CHEMBL4184243, “Optimization of antimalarial, and anticancer activities of (E)-methyl 2-(7-chloroquinolin-4-ylthio)-3-(4-hydroxyphenyl) acrylate” (Bioorg Med Chem, 2018)

What was measured:
[1] = tested on: Lymphocyte; assay: Cytotoxicity against human lymphocytes after 24 to 48 hrs by MTT assay; assay type: cell-based
[2] = tested on: Plasmodium berghei; assay: Antimalarial activity against chloroquine-susceptible Plasmodium berghei ANKA infected in Balb-C mouse assessed as parasitemia at 10 mg/kg, ip administered once daily for 4 days measured post last dose by Giemsa staining based method (reference value: 65.8 +/- 4.38%); assay type: functional
[3] = tested on: Jurkat E6.1; assay: Cytotoxicity against human Jurkat E6-1 cells after 24 hrs by MTT assay; assay type: functional, cell-based; details: Jurkat E6.1, 24 h
[4] = tested on: Plasmodium berghei; assay: Antimalarial activity against chloroquine-susceptible Plasmodium berghei ANKA infected in Balb-C mouse assessed as mean survival days at 10 mg/kg, ip administered once daily for 4 days (reference value: 8.4 +/- 0.15 day); assay type: functional
[5] = Inhibition of beta-hematin formation assessed as reduction in acetate buffer-initiated hemozoin formation measured after 48 hrs; set-up: concentration or dose not given beside the values; details: concentration not given here
[6] = tested on: HL-60; assay: Cytotoxicity against human HL60 cells after 24 hrs by MTT assay; assay type: functional, cell-based; details: HL-60, 24 h
[7] = tested on: Jurkat E6.1; assay: Induction of apoptosis in human Jurkat E6-1 cells assessed as necrotic cells at 5 uM after 24 hrs by Annexin-V-FITC/propidium iodide staining based flow cytometric analysis (reference value: 1.26 +/- 0.24 %); assay type: functional
[8] = Selectivity index, ratio of IC50 for human lymphocytes to IC50 for human Jurkat E6-1 cells; assay type: toxicity; details: human lymphocytes versus Jurkat E6-1 cells, read-out: Ratio IC50
[9] = tested on: Jurkat E6.1; assay: Induction of apoptosis in human Jurkat E6-1 cells assessed as late apoptotic cells at 5 uM after 24 hrs by Annexin-V-FITC/propidium iodide staining based flow cytometric analysis (reference value: 0.73 +/- 0.14 %); assay type: functional
[10] = tested on: HL-60; assay: Induction of apoptosis in human HL60 cells assessed as late apoptotic cells at 5 uM after 24 hrs by Annexin-V-FITC/propidium iodide staining based flow cytometric analysis (reference value: 0.85 +/- 0.13 %); assay type: functional
[11] = tested on: HL-60; assay: Induction of apoptosis in human HL60 cells assessed as early apoptotic cells at 5 uM after 24 hrs by Annexin-V-FITC/propidium iodide staining based flow cytometric analysis (reference value: 0.36 +/- 0.02 %); assay type: functional
[12] = tested on: HL-60; assay: Induction of apoptosis in human HL60 cells assessed as necrotic cells at 5 uM after 24 hrs by Annexin-V-FITC/propidium iodide staining based flow cytometric analysis (reference value: 1.96 +/- 0.33 %); assay type: functional
[13] = tested on: Jurkat E6.1; assay: Induction of apoptosis in human Jurkat E6-1 cells assessed as early apoptotic cells at 5 uM after 24 hrs by Annexin-V-FITC/propidium iodide staining based flow cytometric analysis (reference value: 0.5 +/- 0.07 %); assay type: functional
[14] = Selectivity index, ratio of IC50 for human lymphocytes to IC50 for human HL60 cells; assay type: toxicity; details: human lymphocytes versus HL60 cells, read-out: Ratio IC50
[15] = tested on: HL-60; assay: Induction of apoptosis in human HL60 cells assessed as necrotic cells at 50 uM after 24 hrs by Annexin-V-FITC/propidium iodide staining based flow cytometric analysis (reference value: 1.96 +/- 0.33 %); assay type: functional
[16] = tested on: Jurkat E6.1; assay: Induction of apoptosis in human Jurkat E6-1 cells assessed as late apoptotic cells at 50 uM after 24 hrs by Annexin-V-FITC/propidium iodide staining based flow cytometric analysis (reference value: 0.73 +/- 0.14 %); assay type: functional
[17] = tested on: HL-60; assay: Induction of apoptosis in human HL60 cells assessed as early apoptotic cells at 50 uM after 24 hrs by Annexin-V-FITC/propidium iodide staining based flow cytometric analysis (reference value: 0.36 +/- 0.02 %); assay type: functional
[18] = tested on: HL-60; assay: Induction of apoptosis in human HL60 cells assessed as late apoptotic cells at 50 uM after 24 hrs by Annexin-V-FITC/propidium iodide staining based flow cytometric analysis (reference value: 0.85 +/- 0.13 %); assay type: functional
[19] = tested on: Jurkat E6.1; assay: Induction of apoptosis in human Jurkat E6-1 cells assessed as necrotic cells at 50 uM after 24 hrs by Annexin-V-FITC/propidium iodide staining based flow cytometric analysis (reference value: 1.26 +/- 0.24 %); assay type: functional
[20] = tested on: Jurkat E6.1; assay: Induction of apoptosis in human Jurkat E6-1 cells assessed as early apoptotic cells at 50 uM after 24 hrs by Annexin-V-FITC/propidium iodide staining based flow cytometric analysis (reference value: 0.5 +/- 0.07 %); assay type: functional
[21] = tested on: HL-60; assay: Induction of apoptosis in human HL60 cells assessed as late apoptotic cells at 1 uM after 24 hrs by Annexin-V-FITC/propidium iodide staining based flow cytometric analysis (reference value: 0.85 +/- 0.13 %); assay type: functional
[22] = tested on: Jurkat E6.1; assay: Induction of apoptosis in human Jurkat E6-1 cells assessed as late apoptotic cells at 1 uM after 24 hrs by Annexin-V-FITC/propidium iodide staining based flow cytometric analysis (reference value: 0.73 +/- 0.14 %); assay type: functional
[23] = tested on: HL-60; assay: Induction of apoptosis in human HL60 cells assessed as early apoptotic cells at 1 uM after 24 hrs by Annexin-V-FITC/propidium iodide staining based flow cytometric analysis (reference value: 0.36 +/- 0.02 %); assay type: functional
[24] = tested on: HL-60; assay: Induction of apoptosis in human HL60 cells assessed as necrotic cells at 1 uM after 24 hrs by Annexin-V-FITC/propidium iodide staining based flow cytometric analysis (reference value: 1.96 +/- 0.33 %); assay type: functional
[25] = tested on: Jurkat E6.1; assay: Induction of apoptosis in human Jurkat E6-1 cells assessed as necrotic cells at 1 uM after 24 hrs by Annexin-V-FITC/propidium iodide staining based flow cytometric analysis (reference value: 1.26 +/- 0.24 %); assay type: functional
[26] = tested on: Jurkat E6.1; assay: Induction of apoptosis in human Jurkat E6-1 cells assessed as early apoptotic cells at 1 uM after 24 hrs by Annexin-V-FITC/propidium iodide staining based flow cytometric analysis (reference value: 0.5 +/- 0.07 %); assay type: functional
[27] = tested on: HL-60; assay: Induction of apoptosis in human HL60 cells assessed as early apoptotic cells at 100 uM after 24 hrs by Annexin-V-FITC/propidium iodide staining based flow cytometric analysis (reference value: 0.36 +/- 0.02 %); assay type: functional
[28] = tested on: HL-60; assay: Induction of apoptosis in human HL60 cells assessed as late apoptotic cells at 100 uM after 24 hrs by Annexin-V-FITC/propidium iodide staining based flow cytometric analysis (reference value: 0.85 +/- 0.13 %); assay type: functional
[29] = tested on: Jurkat E6.1; assay: Induction of apoptosis in human Jurkat E6-1 cells assessed as early apoptotic cells at 100 uM after 24 hrs by Annexin-V-FITC/propidium iodide staining based flow cytometric analysis (reference value: 0.5 +/- 0.07 %); assay type: functional
[30] = tested on: HL-60; assay: Induction of apoptosis in human HL60 cells assessed as necrotic cells at 100 uM after 24 hrs by Annexin-V-FITC/propidium iodide staining based flow cytometric analysis (reference value: 1.96 +/- 0.33 %); assay type: functional
[31] = tested on: Jurkat E6.1; assay: Induction of apoptosis in human Jurkat E6-1 cells assessed as necrotic cells at 100 uM after 24 hrs by Annexin-V-FITC/propidium iodide staining based flow cytometric analysis (reference value: 1.26 +/- 0.24 %); assay type: functional
[32] = tested on: Jurkat E6.1; assay: Induction of apoptosis in human Jurkat E6-1 cells assessed as late apoptotic cells at 100 uM after 24 hrs by Annexin-V-FITC/propidium iodide staining based flow cytometric analysis (reference value: 0.73 +/- 0.14 %); assay type: functional
[33] = tested on: Jurkat; assay: Cytotoxicity against human Jurkat cells after 20 hrs by propidium iodide staining based flow cytometry; assay type: functional, cell-based

SMILES | IC50 [1] | Activity [2] | IC50 [3] | MSD [4] | inhibition [5] | IC50 [6] | selectivity ratio [8] | selectivity ratio [14] | also measured
COC(=O)/C(=C\c1ccc(OC(=O)c2c(OC)cccc2OC)cc1)Sc1ccnc2cc(Cl)ccc12 | > 100 µM | 2.6% | 37.5 µM | 23 days | 92.7% | 37.2 µM | – | – | –
COC(=O)/C(=C\c1ccc(OC(=O)c2cc(OC)c(OC)c(OC)c2)cc1)Sc1ccnc2cc(Cl)ccc12 | 35.2 µM | – | 4.57 µM | – | 2.48% | 4.24 µM | 7.7 | 8.3 | Activity [7]: 35.6%; Activity [9]: 10.3%; Activity [10]: 11.3%; Activity [11]: 0.75%; Activity [12]: 45.8%; Activity [13]: 2.41%
COC(=O)/C(=C\c1ccc(OC(=O)c2ccccc2OC)cc1)Sc1ccnc2cc(Cl)ccc12 | > 100 µM | 1.2% | 44.6 µM | 28.83 days | 94.6% | 44.5 µM | – | – | –
COC(=O)/C(=C\c1ccc(OC(=O)c2ccc(OC)cc2OC)cc1)Sc1ccnc2cc(Cl)ccc12 | 41.6 µM | – | 10.2 µM | – | 49.2% | 7.64 µM | 4.09 | 5.45 | –
COC(=O)/C(=C\c1ccc(OC(=O)c2cc(OCc3ccccc3)c(OCc3ccccc3)c(OCc3ccccc3)c2)cc1)Sc1ccnc2cc(Cl)ccc12 | > 100 µM | – | > 100 µM | – | 23% | > 100 µM | – | – | –
COC(=O)/C(=C\c1ccc(OC(=O)c2cc(OC)cc(OC)c2OC)cc1)Sc1ccnc2cc(Cl)ccc12 | 74 µM | – | 15.6 µM | – | 47.7% | 10.7 µM | 4.74 | 6.91 | –
COC(=O)/C(=C\c1ccc(OC(=O)c2ccc(OC)cc2)cc1)Sc1ccnc2cc(Cl)ccc12 | 63.5 µM | – | 11 µM | – | 12.2% | 9.09 µM | 5.77 | 6.99 | –
COC(=O)/C(=C\c1ccc(OC(=O)c2cccc(OC)c2)cc1)Sc1ccnc2cc(Cl)ccc12 | > 100 µM | 1.5% | 33.2 µM | 27.16 days | 87.1% | 25.5 µM | – | – | –
O=c1c(O)c(-c2ccc(O)c(O)c2)oc2cc(O)cc(O)c12 [QUERCETIN] | – | – | – | – | – | – | – | – | Activity [15]: 31%; Activity [16]: 9.51%; Activity [17]: 0.46%; Activity [18]: 3.07%; Activity [19]: 31.9%; Activity [20]: 0.64%
COc1cccc2c1C(=O)c1c(O)c3c(c(O)c1C2=O)C[C@@](O)(C(=O)CO)C[C@@H]3O[C@H]1C[C@H](N)[C@H](O)[C@H](C)O1 [DOXORUBICIN] | 4.36 µM | – | 1.03 µM | – | – | 1.6 µM | – | – | Activity [21]: 20.8%; Activity [22]: 19.8%; Activity [23]: 1.91%; Activity [24]: 30.2%; Activity [25]: 32.6%; Activity [26]: 0.89%
COC(=O)/C(=C\c1ccc(OC(=O)c2ccccc2)cc1)Sc1ccnc2cc(Cl)ccc12 | > 100 µM | – | 35.7 µM | – | 33.6% | 30.2 µM | – | – | –
COC(=O)/C(=C\c1ccc(OC(=O)c2cc(OC)cc(OC)c2)cc1)Sc1ccnc2cc(Cl)ccc12 | 84.1 µM | 1.4% | 28.9 µM | 28.5 days | 85.6% | 19 µM | 2.92 | 4.42 | –
COC(=O)/C(=C\c1ccc(OC(=O)c2cccc(OC)c2OC)cc1)Sc1ccnc2cc(Cl)ccc12 | 86.6 µM | – | 25.8 µM | – | 38.6% | 13 µM | 3.36 | 6.66 | –
CCN(CC)CCCC(C)Nc1ccnc2cc(Cl)ccc12 (stereo unspecified) [CHLOROQUINE] | > 100 µM | 0.8% | 83.6 µM | 29.98 days | 98.5% | > 100 µM | – | – | Activity [27]: 0.66%; Activity [28]: 2.14%; Activity [29]: 1.4%; Activity [30]: 23.6%; Activity [31]: 23.7%; Activity [32]: 7.85%; IC50 [33]: 95 µM
COC(=O)/C(=C\c1ccc(OC(=O)c2ccc(OC)c(OC)c2)cc1)Sc1ccnc2cc(Cl)ccc12 | 51.1 µM | – | 8.29 µM | – | 12.7% | 5.29 µM | 6.16 | 9.66 | Activity [7]: 21.5%; Activity [9]: 13.5%; Activity [10]: 2.15%; Activity [11]: 0.33%; Activity [12]: 40.2%; Activity [13]: 0.76%
COC(=O)/C(=C\c1ccc(O)cc1)Sc1ccnc2cc(Cl)ccc12 | 33.7 µM | 1.4% | 5.18 µM | 24.8 days | 72.4% | 4.31 µM | 6.51 | 7.82 | Activity [7]: 38.8%; Activity [9]: 2.12%; Activity [10]: 3.15%; Activity [11]: 0.74 - 0.75%; Activity [12]: 45%; Activity [13]: 0.45%
O=[As][As+](=O)[O-] (stereo unspecified) [ARSENIC TRIOXIDE] | 15.3 µM | – | 7.32 µM | – | – | 4.97 µM | 2.09 | 3.07 | –
COC(=O)/C(=C\c1ccc(OC(=O)c2cc(OC)c(OC)cc2OC)cc1)Sc1ccnc2cc(Cl)ccc12 | 52.5 µM | – | 9.65 µM | – | 39.6% | 6.26 µM | 5.44 | 8.34 | Activity [7]: 21.4%; Activity [9]: 3.17%; Activity [10]: 4.21%; Activity [11]: 0.61%; Activity [12]: 29.5%; Activity [13]: 0.85%
